How the values were obtained:
[1] = system: H3K27ac levels in K562 cells; experiment: Western blot of H3K27ac levels in treated K562 cells; assay type: cell-based, human; settings: 48 hr treatment, vs DMSO control
Source text: (§1) FIG. 13 is a western blot showing H3K27ac and H3K27me3 levels in K562 cells following treatment with the p300 inhibitor C646 or the EZH2 inhibitor […] (compared to a DMSO control). The total H3 is shown as loading control.
Data are typically normalized based on read numbers (“reads per million” or RPM). This presents complications when comparing between samples. To address this shortcoming, exogenous spike-in controls or semisynthetic standards were recently introduced (Bonhoure et al., 2014; Grzybowski et al., 2015; Orlando et al., 2014). The methods disclosed herein were assessed to determine whether the consistency of pooled sample processing could allow the capture of global modification levels without spike-in controls. To this end, an additional IP was included with antibody to total H3, which was used as a normalization factor for the modifications (FIG. 12). The approach for measuring global changes was tested using small molecule inhibitors. K562 cells were treated with the p300 inhibitor C646 or the EZH2 inhibitor GSK126 (Ferrari et al., 2013; McCabe et al., 2012a). Western blots confirmed that H3K27ac levels were reduced by the acetyltransferase inhibitor C646, […] (FIG. 13). […] After sequencing, the number of reads for H3K27ac and H3K27me3 were normalized to the number of reads for total H3.

[2] = system: H3K27me3 levels in K562 cells; experiment: Western blot of H3K27me3 levels in treated K562 cells (acid extracted histones); assay type: cell-based, human; settings: 48 hr treatment
Source text: as §1
Data are typically normalized based on read numbers (“reads per million” or RPM). This presents complications when comparing between samples. To address this shortcoming, exogenous spike-in controls or semisynthetic standards were recently introduced (Bonhoure et al., 2014; Grzybowski et al., 2015; Orlando et al., 2014). The methods disclosed herein were assessed to determine whether the consistency of pooled sample processing could allow the capture of global modification levels without spike-in controls. […] After sequencing, the number of reads for H3K27ac and H3K27me3 were normalized to the number of reads for total H3.
It is noted the methods disclosed herein are preferential to open regions, as these are more sensitive to MNase digestion. This is evident in the relatively higher proportion of H3 reads that align to euchromatic regions (2-fold enrichment; compare to 1.2-fold enrichment in conventional ChIP-seq). […] To test this, Western blots to quantify H3K27me3 levels were used in MNase digested chromatin from K562 cells treated with GSK126.

[3] = system: H3K27ac levels in K562 cells; experiment: Multiplexed barcoded ChIP-seq (Mint-ChIP), H3K27ac reads normalized to total H3 reads; assay type: cell-based, human; settings: 48 hours treatment
Source text: (§2) FIG. 12 is a schematic showing an example method for quantitatively normalizing sequencing data results, in accordance with certain example embodiments. The control or drug treated cells are indexed, pooled, and then split for parallel ChIP assays. The ratio between H3K27me3 reads and H3 reads is used to compare global H3K27me3 levels between sample and normalized corresponding profiles.
(§3) FIG. 14 is a set of bar graphs showing global modification levels inferred from Western blot (top) or in accordance with certain example embodiments (bottom). The respective methods were applied in parallel to the same sample of […] cells treated for 48 hours with the indicated inhibitors. The data are shown as a mean±SD of n=3 independent experiments (symbols indicate values from independent experiments).
(§4) First, procedures for simultaneously lysing and digesting chromatin from small numbers of K562 cells were modified. […]
(§5) Algorithms were developed to process Mint-ChIP seq results. First, the seq reads are de-multiplexed by index #2 to yield separate read files for each ChIP assay. Each of these read files is then further de-multiplexed by index #1 (T7-adapter barcode) to yield separate files for each sample. […] More than 90% of reads were successfully assigned to one of the T7-adapter barcodes (FIG. 5). […]

[4] = system: H3K4me3 levels in K562 cells; experiment: Western blot of H3K4me3 levels in treated K562 cells; assay type: cell-based, human; settings: 96 hr treatment, vs DMSO
Experimental: FIG. 16 are Western blots showing increased H3K4me3 levels in K562 cells following treatment with the demethylase inhibitor KDM5-C70. The total H3 is shown as loading control and n=3 experiments are shown.
(§6) (Labelle et al., 2014). The chromatin of K562 cells treated with DMSO or KDM5-C70 for 96 hr were barcoded and pooled. H3K4me3 and total H3 were then assayed. After sequencing, normalization of the number of H3K4me3 reads to the number of H3 reads reflected global modification levels and was consistent between experiments and also with Western blot analysis (FIG. 16 and FIG. 17). […] This effect was obscured when the data were subjected to conventional RPM normalization (FIG. 18).

H3K4me3 in K562 cells = experiment: Multiplexed barcoded ChIP-seq (Mint-ChIP), H3K4me3 profiles with quantitative normalization to total H3; assay type: cell-based, human; settings: 96 hr treatment, vs DMSO
Source text: FIG. 17 is a set of graphs showing global H3K4me3 levels inferred in accordance with certain example embodiments. The data are shown as ±SD of four replicates n=3 experiments are shown.
FIG. 18 is a graph showing H3K4me3 profiles scaled by conventional or quantitative normalization.
FIG. 19 provides a composite plot depicting average H3K4me3 in K562 cells treated with DMSO or KDM5-C70 (A) with 10 kb regions surrounding the centers of 36,875 peaks that are shown; a bar blot showing the fraction of peaks within size windows (B); and a Venn diagram showing the number of peaks detected in K562 cells treated with DMSO or KDM5-70 (C). The data were generated in accordance with certain example embodiments.
as §6

[5] = system: H3K27me3 levels in K562 cells; experiment: Multiplexed barcoded ChIP-seq (Mint-ChIP), H3K27me3 reads normalized to total H3 reads; assay type: cell-based, human; settings: 48 hours treatment
Source text: as §2, §3, §4, §5

[6] = system: H3K27me3 levels in K562 cells; experiment: Western blot of H3K27me3 in MNase digested chromatin; assay type: cell-based, human; settings: 48 hr of treatment
Source text: It is noted the methods disclosed herein are preferential to open regions, as these are more sensitive to MNase digestion. This is evident in the relatively higher proportion of H3 reads that align to euchromatic regions (2-fold enrichment; compare to 1.2-fold enrichment in conventional ChIP-seq). These ratios are small relative to enrichments in ChIP-seq peaks, which range from 5- to 100-fold. However, they could account for increased sensitivity to early changes in H3K27me3 if these were also preferential to euchromatin. To test this, Western blots to quantify H3K27me3 levels were used in MNase digested chromatin from K562 cells treated with GSK126.

[7] = system: H3K27me3 levels in Pfeiffer cells; experiment: Mint-ChIP global H3K27me3 levels (ratio to H3 reads) after GSK126; assay type: cell-based; settings: after 72 hr
Experimental: (§7) FIG. 20 provides a set of heat maps comparing H3K27me3 (A) and H3K27ac (B) levels in different cell lines treated with GSK126, as quantified in accordance with certain example embodiments. The experiments were performed using two different MNase concentrations.
(§8) The methods disclosed herein were used to quantitatively compare H3K27me3 and H3K27ac landscapes in these three cell lines. First, the global modification levels based on the ratio of H3K27me3 (or H3K27ac) reads to H3 reads were quantified. H3K27me3 levels were 5.1-fold greater in Pfeiffer than the other cell lines, consistent with its EZH2 activating mutation (FIG. 20).
(§9) The respective mutant lines were also treated with the EZH2 inhibitor GSK126, which reduced global H3K27me3 levels (Pfeiffer: 3.4-fold; SKM-1: 3.8-fold; and Toledo: 1.4-fold after 72 hr). Pfeiffer cells, which had the largest absolute decrease in H3K27me3, were the most sensitive to GSK126 treatment (Pfeiffer: 56±11% cell death after 3 days; SKM-1: 15±10%; and Toledo: 2±15%; FIG. 24) (McCabe et al., 2012a). H3K27me3 peaks were called in the naive and drug treated cell lines. Although treatment-associated changes in H3K27me3 are masked by conventional normalization, these changes are readily evident using the quantitative normalization inherent to the methods disclosed herein (FIG. 23). Thus, the methods disclosed herein can quantify differences in global chromatin landscapes of cancer cells representing different genotypes or drug treatments.

[8] = system: H3K27me3 levels in SKM-1 cells; experiment: as above; assay type: cell-based; settings: SKM-1, after 72 hr
Experimental: as §7, §8, §9

[9] = system: H3K27me3 levels in Toledo cells; experiment: as above; assay type: cell-based; settings: after 72 hr
Experimental: as §7, §8, §9

Pfeiffer cells = experiment: Viable cell counts following GSK126 treatment; assay type: cell-based; settings: after 3 days
Experimental: (§10) FIG. 24 provides a set of bar plots depicting viable cell counts following 72 hour GSK126 treatment of Pfeiffer, SKM-1, and Toledo. The data are shown as mean±SD of technical triplicates×n=2 independent experiments (*p<0.05, **p<0.01, and ****p<0.0001).
as §9

SKM-1 cells = experiment: Viable cell counts following GSK126 treatment; assay type: cell-based; settings: SKM-1, after 3 days
Experimental: as §10, §9

Toledo cells = experiment: Viable cell counts following GSK126 treatment; assay type: cell-based; settings: after 3 days
Experimental: as §10, §9

SMILES | H3K27ac levels (Western blot) [1] | H3K27me3 levels (Western blot) [2] | ratio between H3K27ac reads and total H3 reads [3] | H3K4me3 levels (Western blot) [4] | H3K4me3 coverage, domains and peaks (H3K4me3 in K562 cells) | H3K4me3 peak intensity (tracks scaled by inferred global levels) (H3K4me3 in K562 cells; quantitative normalization) | H3K27me3 levels (H3K27me3 reads normalized to total H3 reads) [5] | H3K27me3 levels (Western blot, MNase digested chromatin) [6] | reduction of global H3K27me3 levels [7] [fold] | reduction of global H3K27me3 levels [8] [fold] | reduction of global H3K27me3 levels [9] [fold] | cell death (Pfeiffer cells) [%] | cell death (SKM-1 cells) [%] | cell death (Toledo cells) [%]
CC1=NN(c2ccc(C(=O)O)cc2)C(=O)/C1=C\c1ccc(-c2cc(C)c(C)cc2[N+](=O)[O-])o1 [C646] | reduced | did not detect significant changes | decreased |  |  |  |  |  |  |  |  |  |  | 
CCOC(=O)c1ccnc(CNCC(=O)N(CC)CCN(C)C)c1 [KDM5-C70] |  |  |  | increased | increases H3K4me3 coverage and widens existing domains, while also generating new H3K4me3 peaks | increased peak intensity |  |  |  |  |  |  |  | 
CC[C@H](C)n1cc(C)c2c(C(=O)NCc3c(C)cc(C)[nH]c3=O)cc(-c3ccc(N4CCNCC4)nc3)cc21 [GSK126] | increased | did not detect significant changes | increased |  |  |  | consistent reduction | Consistent reductions | 3.4 | 3.8 | 1.4 | 56±11 | 15±10 | 2±15

Reference: patent US10479986B2, “Nucleic acid constructs and methods for labeling and detecting nucleosomal DNA modifications” (THE BROAD INSTITUTE, INC., priority 2016, dated 2019)
